Measurements: patent US12655116B2, “Substituted isophthalic acid diamides” (Bayer Aktiengesellschaft, priority 2020, dated 2026)

Key:
ALOMY = experiment: Pre-emergence herbicidal action against ALOMY; type: in vivo, Alopecurus myosuroides; settings: pre-emergence
Method in brief: (§1)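 Greenhouse pots of sandy loam held seeds covered with soil, onto which the compound was applied before emergence. An aqueous suspension or emulsion of WP or EC was used at 600 to 800 l/ha with 0.2% wetting agent. Percent damage was judged visually at 3 weeks.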

DIGSA [1] = experiment: Pre-emergence herbicidal action against DIGSA; type: in vivo, Digitaria sanguinalis
Method in brief: as §1

DIGSA [2] = experiment: Post-emergence herbicidal action against DIGSA; type: in vivo, Digitaria sanguinalis
Method in brief: (§2)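 Foliar application at one-leaf stage of formulated test compounds, aqueous spray at 600–800 l/ha with 0.2% wetting agent. Greenhouse, optimal conditions, ~3 weeks; damage scored visually in % relative to untreated plants.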

ECHCG [3] = experiment: Post-emergence herbicidal action against ECHCG; type: in vivo, Echinochloa crus-galli; settings: dosage 20 g/ha
Method in brief: as §2

VIOTR [4] = experiment: Pre-emergence herbicidal action against VIOTR; type: in vivo, Viola tricolor
Method in brief: as §1

VERPE [5] = experiment: Pre-emergence herbicidal action against VERPE; type: in vivo, Veronica persica
Method in brief: as §1

AMARE [6] = experiment: Pre-emergence herbicidal action against AMARE; type: in vivo, Amaranthus retroflexus
Method in brief: as §1

VERPE [7] = experiment: Post-emergence herbicidal action against VERPE; type: in vivo, Veronica persica
Method in brief: as §2

ABUTH [8] = experiment: Post-emergence herbicidal action against ABUTH; type: in vivo, Abutilon theophrasti; settings: visual assessment about 3 weeks after treatment vs untreated controls
Method in brief: as §2

AVEFA = experiment: Pre-emergence herbicidal action against AVEFA; type: in vivo, Avena fatua; settings: Avena fatua, 504 h; 80 g/ha, pre-emergence
Method in brief: as §1

MATIN [9] = experiment: Pre-emergence herbicidal action against MATIN; type: in vivo, Matricaria inodora
Method in brief: as §1

AMARE [10] = experiment: Post-emergence herbicidal action against AMARE; type: in vivo, Amaranthus retroflexus; settings: 20 g/ha, visual assessment about 3 weeks after treatment, 100% = plants have died, 0% = like control plants
Method in brief: as §2

VIOTR [11] = experiment: Post-emergence herbicidal action against VIOTR; type: in vivo, Viola tricolor
Method in brief: as §2

ABUTH [12] = experiment: Pre-emergence herbicidal action against ABUTH; type: in vivo, Abutilon theophrasti
Method in brief: as §1

ECHCG [13] = experiment: Pre-emergence herbicidal action against ECHCG; type: in vivo, Echinochloa crus-galli; settings: 80 g/ha
Method in brief: as §1

SETVI [14] = experiment: Pre-emergence herbicidal action against SETVI; type: in vivo, Setaria viridis
Method in brief: as §1

PHBPU [15] = experiment: Pre-emergence herbicidal action against PHBPU; type: in vivo, Pharbitis purpurea; settings: dosage 80 g/ha
Method in brief: as §1

PHBPU [16] = experiment: Post-emergence herbicidal action against PHBPU; type: in vivo, Pharbitis purpurea
Method in brief: as §2

MATIN [17] = experiment: Post-emergence herbicidal action against MATIN; type: in vivo, Matricaria inodora
Method in brief: as §2

SETVI [18] = experiment: Post-emergence herbicidal action against SETVI; type: in vivo, Setaria viridis; settings: dosage 20 g/ha
Method in brief: as §2

[19] = 80 g/ha, scored visually after 3 weeks vs untreated controls (100% = plants have died, 0% = like control plants)

CCn1nnnc1NC(=O)c1ccc(C(F)F)c(C(=O)NC2CC2)c1Br [Example 2-227]
pest or weed control at 80 g/ha (ALOMY; Alopecurus myosuroides, 504 h, 80 g/ha, scored visually after 3 weeks vs untreated controls (100% = plants have died, 0% = like control plants)): 100% | pest or weed control at 20 g/ha (ALOMY; Alopecurus myosuroides, 504 h, 20 g/ha, scored visually after 3 weeks, 100% = plants have died, 0% = like control plants): 80% | pest or weed control at 20 g/ha (DIGSA [1]; Digitaria sanguinalis, 504 h, dosage 20 g/ha): 90% | pest or weed control at 80 g/ha (DIGSA [1]; Digitaria sanguinalis, 504 h, dosage 80 g/ha): 100% | pest or weed control at 20 g/ha (DIGSA [2]; Digitaria sanguinalis, 504 h, 20 g/ha): 100% | pest or weed control at 20 g/ha (ECHCG [3]; Echinochloa crus-galli, 504 h): 80% | pest or weed control at 20 g/ha (VIOTR [4]; Viola tricolor, 504 h, dosage 20 g/ha): 100% | pest or weed control at 80 g/ha (VIOTR [4]; Viola tricolor, 504 h, dosage 80 g/ha): 100% | pest or weed control at 80 g/ha (VERPE [5]; Veronica persica, 504 h, dosage 80 g/ha): 100% | pest or weed control at 20 g/ha (AMARE [6]; Amaranthus retroflexus, 504 h, 20 g/ha, scored visually after 3 weeks vs untreated controls, 100% = plants have died, 0% = like control plants): 100% | pest or weed control at 80 g/ha (AMARE [6]; Amaranthus retroflexus, 504 h, 80 g/ha, scored visually after 3 weeks vs untreated controls, 100% = plants have died, 0% = like control plants): 100% | pest or weed control at 20 g/ha (VERPE [7]; Veronica persica, 504 h, 20 g/ha): 80% | pest or weed control at 5 g/ha (ABUTH [8]; Abutilon theophrasti, 504 h, dosage 5 g/ha): 100% | pest or weed control at 20 g/ha (ABUTH [8]; Abutilon theophrasti, 504 h, dosage 20 g/ha): 100% | pest or weed control at 80 g/ha (AVEFA): 90% | pest or weed control at 20 g/ha (MATIN [9]; Tripleurospermum inodorum, 504 h, dosage 20 g/ha): 100% | pest or weed control at 80 g/ha (MATIN [9]; Tripleurospermum inodorum, 504 h, dosage 80 g/ha): 100% | pest or weed control at 20 g/ha (AMARE [10]; Amaranthus retroflexus, 504 h): 100% | pest or weed control at 5 g/ha (VIOTR [11]; Viola tricolor, 504 h, 5 g/ha): 90% | pest or weed control at 20 g/ha (VIOTR [11]; Viola tricolor, 504 h, 20 g/ha): 100% | pest or weed control at 80 g/ha (ABUTH [12]; Abutilon theophrasti, 504 h, 80 g/ha, scored visually after 3 weeks vs untreated controls (100% = plants have died, 0% = like control plants)): 100% | pest or weed control at 20 g/ha (ABUTH [12]; Abutilon theophrasti, 504 h, dosage 20 g/ha, scored visually after 3 weeks vs untreated controls, 100% = plants have died, 0% = like control plants, read-out: Pre-emergence action against ABUTH (herbicidal activity in percent)): 100% | pest or weed control at 80 g/ha (ECHCG [13]; Echinochloa crus-galli, 504 h): 100% | pest or weed control at 20 g/ha (SETVI [14]; Setaria viridis, 504 h, dosage 20 g/ha): 100% | pest or weed control at 80 g/ha (SETVI [14]; Setaria viridis, 504 h, dosage 80 g/ha): 100% | pest or weed control at 80 g/ha (PHBPU [15]; Ipomoea purpurea, 504 h): 90%

CCn1nnnc1NC(=O)c1ccc(C(F)(F)F)c(C(=O)NC)c1C1CC1 [Example 2-286]
Pre-emergence action against ALOMY (herbicidal activity) (ALOMY; [19]): 80% | Pre-emergence action against DIGSA in % (DIGSA [1]; dosage 20 g/ha): 100% | Pre-emergence action against DIGSA in % (DIGSA [1]; dosage 80 g/ha): 100% | Post-emergence action against DIGSA in % (DIGSA [2]; 5 g/ha): 90% | Post-emergence action against DIGSA (DIGSA [2]; 20 g/ha): 90% | Post-emergence action against ECHCG in % (ECHCG [3]): 100% | Pre-emergence action against VIOTR in % (VIOTR [4]; dosage 20 g/ha): 90% | Pre-emergence action against VIOTR in % (VIOTR [4]; dosage 80 g/ha): 100% | Post-emergence action against PHBPU in % (PHBPU [16]; dosage 5 g/ha): 90% | Post-emergence action against PHBPU in % (PHBPU [16]; dosage 20 g/ha): 90% | Pre-emergence action against VERPE in % (VERPE [5]; dosage 20 g/ha): 80% | Pre-emergence action against VERPE in % (VERPE [5]; dosage 80 g/ha): 100% | Pre-emergence action against AMARE in % (AMARE [6]; 20 g/ha, scored visually after 3 weeks vs untreated controls, 100% = plants have died, 0% = like control plants): 100% | Pre-emergence action against AMARE in % (AMARE [6]; [19]): 100% | Post-emergence action against VERPE in % (VERPE [7]; 5 g/ha): 80% | Post-emergence action against VERPE in % (VERPE [7]; 20 g/ha): 80% | Post-emergence action against ABUTH in % (ABUTH [8]; dosage 5 g/ha): 90% | Post-emergence action against ABUTH in % (ABUTH [8]; dosage 20 g/ha): 90% | Pre-emergence action against MATIN in % (MATIN [9]; dosage 20 g/ha): 100% | Pre-emergence action against MATIN in % (MATIN [9]; dosage 80 g/ha): 100% | Post-emergence action at 20 g/ha against AMARE in % (AMARE [10]): 100% | Post-emergence action against VIOTR in % (VIOTR [11]; 20 g/ha): 80% | Pre-emergence action against ABUTH (herbicidal activity) (ABUTH [12]; [19]): 100% | Pre-emergence action against ABUTH (herbicidal activity in percent) (ABUTH [12]; dosage 20 g/ha, scored visually after 3 weeks vs untreated controls, 100% = plants have died, 0% = like control plants): 100% | Pre-emergence action against ECHCG in % (ECHCG [13]): 90% | Pre-emergence action against SETVI in % (SETVI [14]; dosage 20 g/ha): 80% | Pre-emergence action against SETVI in % (SETVI [14]; dosage 80 g/ha): 100% | Post-emergence action against MATIN in % (MATIN [17]; dosage 5 g/ha): 90% | Post-emergence action against MATIN in % (MATIN [17]; dosage 20 g/ha): 90% | Post-emergence action against SETVI in % (SETVI [18]): 80% | Pre-emergence action against PHBPU in % (PHBPU [15]): 90%
